The values below are quoted from earlier work in patent US11857520B2, “Therapeutic composition of intranasal lidocaine” (Nortic Holdings Inc., priority 2018, dated 2024).

In the first data set the test system is human retinal pigment epithelial cell. The following applies: 0.225 mg/ml in triamcinolone acetonide (TA) following intravitreal injection, at 2 hours.
Turning to `OCc1ccccc1` [benzyl alcohol], the “effect on human retinal pigment epithelial cells” value is “caused ultrastructural damage and impaired human retinal pigment epithelial cell function”.

Tested on in a further data set: not given
Particulars: generally recognized.
Turning to `CCCCN1CCCCC1C(=O)Nc1c(C)cccc1C` (centres unmarked) [bupivacaine], the Maximum dose is reported as 3 mg/kg.

On to `CCN(CC)CCOC(=O)c1ccc(N)cc1Cl` [chloroprocaine], for which the Maximum dose is reported as 12 mg/kg.

`COC(=O)[C@H]1[C@@H](OC(=O)c2ccccc2)C[C@@H]2CC[C@H]1N2C` [cocaine]: the Maximum dose was 3 mg/kg.

Consider `CCN(CC)CC(=O)Nc1c(C)cccc1C` [lidocaine], for which the Maximum dose is recorded as 4.5 mg/kg and the duration of action is 0.75 to 1.5 h.

`Cc1cccc(C)c1NC(=O)C1CCCCN1C` (centres unmarked) [mepivacaine]: the Maximum dose was 4.5 mg/kg and the duration of action was 1 to 2 h.

Consider `CCCNC(C)C(=O)Nc1ccccc1C` (centres unmarked) [prilocaine], for which the Maximum dose is recorded as 8 mg/kg.

Consider `CCN(CC)CCOC(=O)c1ccc(N)cc1` [procaine], for which the Maximum dose is reported as 12 mg/kg.

In the case of `CCCN1CCCC[C@H]1C(=O)Nc1c(C)cccc1C` [ropivacaine], the Maximum dose is 3 mg/kg.

For the compound `CCCCNc1ccc(C(=O)OCCN(C)C)cc1` [tetracaine], the Maximum dose was 3 mg/kg and the duration of action is 1.5 to 6 h.

The test system of the next data set is skin. Particulars: HSDB database.
Turning to `OCc1ccccc1` [benzyl alcohol], the “level irritating to the skin” value was not below 3%.
